Experimental data from ChEMBL document CHEMBL1201862, “PubChem BioAssay data set” (2004).
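Method: 48-hour compound exposure of cells in 96-well plates, five concentrations, linear interpolation of endpoints. At the GI50, growth is halved.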 Active and inactive are the calls of the source. Cut-off read from the data, not from the text of the source: active = GI50 up to about 1.1 µM and inactive = higher.

Tests used:
Assay in all cases: NCI-60 cell line screen, 48 h
[1] = test system: COLO 205
[2] = test system: RPMI-8226
[3] = test system: SR
[4] = test system: U-251
[5] = test system: CCRF-CEM
[6] = test system: 786-0
[7] = test system: BT-549
[8] = test system: NCI-H522
[9] = test system: UO-31
[10] = test system: NCI-H23
[11] = test system: NCI-H460
[12] = test system: SNB-75
[13] = test system: SW-620
[14] = test system: SF-295
[15] = test system: RXF 393
[16] = test system: UACC-62
[17] = test system: OVCAR-3
[18] = test system: SK-MEL-28
[19] = test system: NCI/ADR-RES
[20] = test system: SF-268

Row | SMILES | GI50 [1] | GI50 [2] | GI50 [3] | GI50 [4] | GI50 [5] | GI50 [6] | GI50 [7] | GI50 [8] | GI50 [9] | GI50 [10] | GI50 [11] | GI50 [12] | GI50 [13] | GI50 [14] | GI50 [15] | GI50 [16] | GI50 [17] | GI50 [18] | GI50 [19] | GI50 [20]
1 | O=C(SCc1cccc2ccccc12)c1ccc(Cl)cc1 | 82.2 µM (inactive) | 46.9 µM (inactive) | 39.3 µM (inactive) | > 100 µM (inactive) | > 100 µM (inactive) | > 100 µM (inactive) | > 100 µM (inactive) | 45.8 µM (inactive) | > 100 µM (inactive) | 95.3 µM (inactive) | 49 µM (inactive) | > 100 µM (inactive) | > 100 µM (inactive) | > 100 µM (inactive) | > 100 µM (inactive) | > 100 µM (inactive) | 44.4 µM (inactive) | > 100 µM (inactive) | > 100 µM (inactive) | 80.4 µM (inactive)
2 | O=C(OCc1ccccc1)c1ccc(NCc2cc(O)ccc2O)cc1 | 1.47 µM (inactive) | 0.372 µM (active) | 0.247 µM (active) | 1.29 µM (inactive) | 0.308 µM (active) | 1.11 µM (active) | 0.713 µM (active) | 0.35 µM (active) | 1.32 µM (inactive) | 1.53 µM (inactive) | 3.42 µM (inactive) | 0.906 µM (active) | 1.67 µM (inactive) | 6.12 µM (inactive) | 1.07 µM (active) | 1.56 µM (inactive) | 1 µM (active) | 1.63 µM (inactive) | 1.47 µM (inactive) | 1.36 µM (inactive)
3 | CC1(Br)Cc2ccccc2C1=O (stereo not given) | 4.35 µM (inactive) | 5.65 µM (inactive) | 2.45 µM (inactive) | 4.59 µM (inactive) | 1.75 µM (inactive) | 2.15 µM (inactive) | 1.7 µM (inactive) | 4.14 µM (inactive) | 6.95 µM (inactive) | 5.41 µM (inactive) | > 10 µM (inactive) | 13 µM (inactive) | 4.75 µM (inactive) | 18.7 µM (inactive) | > 10 µM (inactive) | 1.29 µM (inactive) | 8.99 µM (inactive) | 2.29 µM (inactive) | 13.1 µM (inactive) | 4.68 µM (inactive)
4 | CCN(CC)CC(=O)O[C@]1(CC)C(=O)OCc2c1cc1n(c2=O)Cc2cc3ccccc3nc2-1 | 0.209 µM (active) | 0.165 µM (active) | < 0.01 µM (active) | < 0.01 µM (active) | < 0.01 µM (active) | < 0.0107 µM (active) | 0.0413 µM (active) | 0.0247 µM (active) | 0.0196 µM (active) | < 0.016 µM (active) | < 0.01 µM (active) | 0.0266 µM (active) | 0.0946 µM (active) | 0.0102 µM (active) | 0.0836 µM (active) | < 0.01 µM (active) | 0.219 µM (active) | 0.179 µM (active) | < 0.01 µM (active) | < 0.012 µM (active)
5 | O=C1C(=Cc2ccccc2[N+](=O)[O-])N=C(c2ccccc2)N1n1c(-c2ccccc2)nc2ccccc2c1=O | 31.3 µM (inactive) | 20.5 µM (inactive) | 37.7 µM (inactive) | 30 µM (inactive) | 31 µM (inactive) | 38 µM (inactive) | 41.8 µM (inactive) | 17 µM (inactive) | 32.4 µM (inactive) | 20.2 µM (inactive) | 31.3 µM (inactive) | 35.6 µM (inactive) | 32.7 µM (inactive) | 30.9 µM (inactive) | 16.1 µM (inactive) | 19.1 µM (inactive) | 29 µM (inactive) | 30.9 µM (inactive) | 23.2 µM (inactive) | 30.3 µM (inactive)
6 | C/C(=N/NC(=S)Nc1cccc(Cl)c1)c1ccccn1 | 0.0372 µM (active) | 0.029 µM (active) | < 0.0185 µM (active) | 0.0885 µM (active) | < 0.0174 µM (active) | 0.562 µM (active) | 1.82 µM (inactive) | 0.06 µM (active) | 0.269 µM (active) | 0.463 µM (active) | 0.357 µM (active) | 2.95 µM (inactive) | 0.0324 µM (active) | 0.366 µM (active) | 1.52 µM (inactive) | 0.202 µM (active) | 0.0365 µM (active) | 2.21 µM (inactive) | < 0.018 µM (active) | 0.142 µM (active)
7 | COc1cc2nc(Cl)nc(NS(=O)(=O)c3cc4ccccc4s3)c2cc1OC | 38.1 µM (inactive) | 18.4 µM (inactive) | 23.4 µM (inactive) | 27.3 µM (inactive) | 12.1 µM (inactive) | 35.4 µM (inactive) | 22.9 µM (inactive) | 31.3 µM (inactive) | 16.4 µM (inactive) | 25.7 µM (inactive) | 32.5 µM (inactive) | 23.1 µM (inactive) | 17.1 µM (inactive) | 33.8 µM (inactive) | 16.6 µM (inactive) | 16.9 µM (inactive) | 19 µM (inactive) | 0.0335 µM (active) | 39.8 µM (inactive) | 35.3 µM (inactive)
8 | COc1cc2cc3c4cc(OC)c(OC)cc4cc[n+]3c(C)c2cc1OC.O=C([O-])CS(=O)(=O)O | 57 µM (inactive) | 68.4 µM (inactive) | > 100 µM (inactive) | 8.69 µM (inactive) | 33.2 µM (inactive) | 88.3 µM (inactive) | 33.5 µM (inactive) | 4.88 µM (inactive) | > 100 µM (inactive) | 7.87 µM (inactive) | > 100 µM (inactive) | 12.3 µM (inactive) | 72.8 µM (inactive) | > 100 µM (inactive) | > 100 µM (inactive) | 65.9 µM (inactive) | 78.9 µM (inactive) | 73.3 µM (inactive) | > 100 µM (inactive) | 0.811 µM (active)
9 | CCOC(=O)c1[nH]c(Br)c(-c2ccc(Br)cc2)c1Br | 0.385 µM (active) | 6.73 µM (inactive) | 0.914 µM (active) | 0.454 µM (active) | 8.15 µM (inactive) | 0.445 µM (active) | 0.535 µM (active) | 0.378 µM (active) | 1.32 µM (inactive) | 2.14 µM (inactive) | 5.25 µM (inactive) | 0.327 µM (active) | 0.555 µM (active) | 0.263 µM (active) | 1.23 µM (inactive) | 0.234 µM (active) | 0.237 µM (active) | 0.366 µM (active) | 0.201 µM (active) | 0.543 µM (active)
